Experimental findings from US11739101B2, “Bifunctional degraders of hematopoietic progenitor kinase and therapeutic uses thereof” (Nurix Therapeutics, Inc., priority 2020, dated 2023) are described below.

For the experiment, the target named is T1, HPK1 (Homo sapiens, UniProt Q92918).
T1 construct: A HiBiT tag was introduced by CRISPR on the N terminus of HPK1 in Jurkat cells; host or cells: Jurkat (ATCC TIB-152), monoclonal CRISPR HiBiT knock-in line
T1 sequence (Q92918 whole entry): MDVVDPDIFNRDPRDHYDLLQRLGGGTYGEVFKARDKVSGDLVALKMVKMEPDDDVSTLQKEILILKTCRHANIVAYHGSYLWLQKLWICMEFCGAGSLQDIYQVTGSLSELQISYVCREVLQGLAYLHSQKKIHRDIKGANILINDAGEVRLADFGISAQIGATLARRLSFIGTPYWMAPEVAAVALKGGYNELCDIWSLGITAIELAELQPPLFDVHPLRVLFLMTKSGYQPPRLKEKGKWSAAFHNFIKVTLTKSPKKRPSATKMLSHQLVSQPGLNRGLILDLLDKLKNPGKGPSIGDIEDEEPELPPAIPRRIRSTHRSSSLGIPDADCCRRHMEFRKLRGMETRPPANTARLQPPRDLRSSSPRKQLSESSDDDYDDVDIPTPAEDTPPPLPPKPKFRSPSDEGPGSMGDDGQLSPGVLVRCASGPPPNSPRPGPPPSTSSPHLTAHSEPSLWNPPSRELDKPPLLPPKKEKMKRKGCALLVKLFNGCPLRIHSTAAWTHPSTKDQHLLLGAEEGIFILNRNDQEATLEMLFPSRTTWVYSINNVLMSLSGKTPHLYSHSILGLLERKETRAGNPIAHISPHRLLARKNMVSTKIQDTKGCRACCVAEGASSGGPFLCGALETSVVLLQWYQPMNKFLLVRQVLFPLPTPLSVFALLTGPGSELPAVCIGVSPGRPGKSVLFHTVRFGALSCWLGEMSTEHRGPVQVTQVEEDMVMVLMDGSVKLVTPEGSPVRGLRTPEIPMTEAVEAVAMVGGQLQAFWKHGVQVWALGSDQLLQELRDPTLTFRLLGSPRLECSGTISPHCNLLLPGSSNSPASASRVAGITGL
The experiment can be described thus: HPK1 Cellular HiBiT Degradation Assay. The experiment is classed as cell-based. To be noted: HiBiT-tagged HPK1 Jurkat cells, 24 hours, 10 uM to 0.1 nM; Dmax = 100 minus lowest % HPK1 remaining vs DMSO vehicle. In outline:
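Jurkat cells with CRISPR N-terminal HiBiT-tagged HPK1 were exposed to an 11-point 3.16-fold dilution series, 10 uM to 0.1 nM final, for 24 hours at 37° C./5% CO2. HPK1 was read by HiBiT lytic luminescence against DMSO as 100% and parental cells as background. Dmax is 100 minus the lowest % remaining from a four-parameter fit, with a parallel CellTiter-Glo viability check.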
In turn, `Cc1cc(F)c(Nc2nc(-c3ccc4c(c3)N([C@H]3C[C@@H](N5CCCCC5)C3)C(=O)C43CCN(C(=O)C4CCN(C(=O)C[C@@H]5CCCN(c6cccc7c6C(=O)N(C6CCC(=O)NC6=O)C7=O)C5)C4)CC3)cc3ncn(C(C)C)c23)cc1C(=O)NC(C)C` (stereo partly drawn) [Example 32, 5-({6-[1′-(1-{2-[(3S)-1-{2-[2,6-dioxopiperidin-3-yl]-1,3-dioxo-2,3-dihydro-1H-isoindol-4-yl}piperidin-3-yl]acetyl}pyrrolidine-3-carbonyl)-2-oxo-1-[(1s,3s)-3-(piperidin-1-yl)cyclobutyl]-1,2-dihydrospiro[indole-3,4′-piperidin]-6-yl]-3-(propan-2-yl)-3H-imidazo[4,5-c]pyridin-4-yl}amino)-4-fluoro-2-methyl-N-(propan-2-yl)benzamide] had a Dmax of less than 45%. Still for that read-out and setting: to `Cc1cc(F)c(Nc2nc(-c3ccc4c(c3)N([C@H]3C[C@@H](N5CCCCC5)C3)C(=O)C43CCN(C(=O)C4CN(CC5CCN(c6cccc7c6C(=O)N(C6CCC(=O)NC6=O)C7=O)CC5)C4)CC3)cc3ncn(C(C)C)c23)cc1C(=O)NC(C)C` (stereo partly drawn) [Example 33, 5-{[6-(1′-{1-[(1-{2-[2,6-dioxopiperidin-3-yl]-1,3-dioxo-2,3-dihydro-1H-isoindol-4-yl}piperidin-4-yl)methyl]azetidine-3-carbonyl}-2-oxo-1-[(1s,3s)-3-(piperidin-1-yl)cyclobutyl]-1,2-dihydrospiro[indole-3,4′-piperidin]-6-yl)-3-(propan-2-yl)-3H-imidazo[4,5-c]pyridin-4-yl]amino}-4-fluoro-2-methyl-N-(propan-2-yl)benzamide] belongs more than 65%; to `Cc1cc(F)c(Nc2nc(-c3ccc4c(c3)N([C@H]3C[C@@H](N5CCCCC5)C3)C(=O)C43CCN(C(=O)C4CN(C(=O)CC5CCN(c6cccc7c6C(=O)N(C6CCC(=O)NC6=O)C7=O)CC5)C4)CC3)cc3ncn(C(C)C)c23)cc1C(=O)NC(C)C` (stereo partly drawn) [Example 34, 5-{[6-(1′-{1-[2-(1-{2-[2,6-dioxopiperidin-3-yl]-1,3-dioxo-2,3-dihydro-1H-isoindol-4-yl}piperidin-4-yl)acetyl]azetidine-3-carbonyl}-2-oxo-1-[(1s,3s)-3-(piperidin-1-yl)cyclobutyl]-1,2-dihydrospiro[indole-3,4′-piperidin]-6-yl)-3-(propan-2-yl)-3H-imidazo[4,5-c]pyridin-4-yl]amino}-4-fluoro-2-methyl-N-(propan-2-yl)benzamide], less than 45%. Same read-out and setting: to `Cc1cc(F)c(Nc2nc(-c3ccc4c(c3)N([C@H]3C[C@@H](N5CCCCC5)C3)C(=O)C43CCN(C(=O)C4CN(CC5CCN(c6cccc7c6C(=O)N(C6CCC(=O)NC6=O)C7=O)C5)C4)CC3)cc3ncn(C(C)C)c23)cc1C(=O)NC(C)C` (stereo partly drawn) [Example 35, 5-({6-[1′-(1-{[1-{2-[2,6-dioxopiperidin-3-yl]-1,3-dioxo-2,3-dihydro-1H-isoindol-4-yl}pyrrolidin-3-yl]methyl}azetidine-3-carbonyl)-2-oxo-1-[(1s,3s)-3-(piperidin-1-yl)cyclobutyl]-1,2-dihydrospiro[indole-3,4′-piperidin]-6-yl]-3-(propan-2-yl)-3H-imidazo[4,5-c]pyridin-4-yl}amino)-4-fluoro-2-methyl-N-(propan-2-yl)benzamide] belongs 45 to 65%. The compound `Cc1cc(F)c(Nc2nc(-c3ccc4c(c3)N([C@H]3C[C@@H](N5CCCCC5)C3)C(=O)C43CCN(C(=O)C4CCN(C(=O)CC5CCN(c6cccc7c6C(=O)N(C6CCC(=O)NC6=O)C7=O)CC5)CC4)CC3)cc3ncn(C(C)C)c23)cc1C(=O)NC(C)C` (stereo partly drawn) [Example 36, 5-{[6-(1′-{1-[2-(1-{2-[2,6-dioxopiperidin-3-yl]-1,3-dioxo-2,3-dihydro-1H-isoindol-4-yl}piperidin-4-yl)acetyl]piperidine-4-carbonyl}-2-oxo-1-[(1s,3s)-3-(piperidin-1-yl)cyclobutyl]-1,2-dihydrospiro[indole-3,4′-piperidin]-6-yl)-3-(propan-2-yl)-3H-imidazo[4,5-c]pyridin-4-yl]amino}-4-fluoro-2-methyl-N-(propan-2-yl)benzamide] registered a Dmax of less than 45%. Same read-out and setting: to `Cc1cc(F)c(Nc2nc(-c3ccc4c(c3)N([C@H]3C[C@@H](N5CCCCC5)C3)C(=O)C43CCN(C(=O)C4CCN(CC5CCN(c6cccc7c6C(=O)N(C6CCC(=O)NC6=O)C7=O)CC5)CC4)CC3)cc3ncn(C(C)C)c23)cc1C(=O)NC(C)C` (stereo partly drawn) [Example 37, 5-{[6-(1′-{1-[(1-{2-[2,6-dioxopiperidin-3-yl]-1,3-dioxo-2,3-dihydro-1H-isoindol-4-yl}piperidin-4-yl)methyl]piperidine-4-carbonyl}-2-oxo-1-[(1s,3s)-3-(piperidin-1-yl)cyclobutyl]-1,2-dihydrospiro[indole-3,4′-piperidin]-6-yl)-3-(propan-2-yl)-3H-imidazo[4,5-c]pyridin-4-yl]amino}-4-fluoro-2-methyl-N-(propan-2-yl)benzamide] belongs more than 65%; to `Cc1cc(F)c(Nc2nc(-c3ccc4c(c3)N([C@H]3C[C@@H](N5CCCCC5)C3)C(=O)C43CCN(C(=O)C4CCN(CC5CCN(c6cccc7c6C(=O)N(C6CCC(=O)NC6=O)C7=O)CC5)C4)CC3)cc3ncn(C(C)C)c23)cc1C(=O)NC(C)C` (stereo partly drawn) [Example 38, 5-[(6-{1′-[1-[(1-{2-[2,6-dioxopiperidin-3-yl]-1,3-dioxo-2,3-dihydro-1H-isoindol-4-yl}piperidin-4-yl)methyl]pyrrolidine-3-carbonyl]-2-oxo-1-[(1s,3s)-3-(piperidin-1-yl)cyclobutyl]-1,2-dihydrospiro[indole-3,4′-piperidin]-6-yl}-3-(propan-2-yl)-3H-imidazo[4,5-c]pyridin-4-yl)amino]-4-fluoro-2-methyl-N-(propan-2-yl)benzamide], more than 65%. Same read-out and setting: to `Cc1cc(F)c(Nc2nc(-c3ccc4c(c3)N([C@H]3C[C@@H](N5CCCCC5)C3)C(=O)C43CCN(C(=O)C4CN(C(=O)C5CCN(c6ccc7c(c6)C(=O)N(C6CCC(=O)NC6=O)C7=O)CC5)C4)CC3)cc3ncn(C(C)C)c23)cc1C(=O)NC(C)C` (stereo partly drawn) [Example 39, 5-[(6-{1′-[1-(1-{2-[2,6-dioxopiperidin-3-yl]-1,3-dioxo-2,3-dihydro-1H-isoindol-5-yl}piperidine-4-carbonyl)azetidine-3-carbonyl]-2-oxo-1-[(1s,3s)-3-(piperidin-1-yl)cyclobutyl]-1,2-dihydrospiro[indole-3,4′-piperidin]-6-yl}-3-(propan-2-yl)-3H-imidazo[4,5-c]pyridin-4-yl)amino]-4-fluoro-2-methyl-N-(propan-2-yl)benzamide] belongs less than 45%; to `Cc1cc(F)c(Nc2nc(-c3ccc4c(c3)N([C@H]3C[C@@H](N5CCCCC5)C3)C(=O)C43CCN(C(=O)C4CCN(C(=O)C5CCN(c6ccc7c(c6)C(=O)N(C6CCC(=O)NC6=O)C7=O)CC5)C4)CC3)cc3ncn(C(C)C)c23)cc1C(=O)NC(C)C` (stereo partly drawn) [Example 40], 45 to 65%. With `Cc1cc(F)c(Nc2nc(-c3ccc4c(c3)N(C3CC(N5CCCCC5)C3)C(=O)C43CCN(C(=O)C4CCN(C(=O)C5CCN(c6ccc7c(c6)C(=O)N(C6CCC(=O)NC6=O)C7=O)CC5)CC4)CC3)cc3ncn(C(C)C)c23)cc1C(=O)NC(C)C` (stereo not drawn) [Example 41, 5-[(6-{1′-[1-(1-{2-[2,6-dioxopiperidin-3-yl]-1,3-dioxo-2,3-dihydro-1H-isoindol-5-yl}piperidine-4-carbonyl)piperidine-4-carbonyl]-2-oxo-1-[(1s,3s)-3-(piperidin-1-yl)cyclobutyl]-1,2-dihydrospiro[indole-3,4′-piperidin]-6-yl}-3-(propan-2-yl)-3H-imidazo[4,5-c]pyridin-4-yl)amino]-4-fluoro-2-methyl-N-(propan-2-yl)benzamide], the “Cellular HPK1 HiBiT: Dmax (%)” value is on record as “B (45%≤B≤65%)”. In the case of `Cc1cc(F)c(Nc2nc(-c3ccc4c(c3)N([C@H]3C[C@@H](N5CCCCC5)C3)C(=O)C43CCN(C(=O)C4CCN(C(=O)CN5CC6(CCN(c7ccc8c(c7)C(=O)N(C7CCC(=O)NC7=O)C8=O)CC6)C5)CC4)CC3)cc3ncn(C(C)C)c23)cc1C(=O)NC(C)C` (stereo partly drawn) [Example 42, 5-{[6-(1′-{1-[2-(7-{2-[2,6-dioxopiperidin-3-yl]-1,3-dioxo-2,3-dihydro-1H-isoindol-5-yl}-2,7-diazaspiro[3.5]nonan-2-yl)acetyl]piperidine-4-carbonyl}-2-oxo-1-[(1s,3s)-3-(piperidin-1-yl)cyclobutyl]-1,2-dihydrospiro[indole-3,4′-piperidin]-6-yl)-3-(propan-2-yl)-3H-imidazo[4,5-c]pyridin-4-yl]amino}-4-fluoro-2-methyl-N-(propan-2-yl)benzamide], the Dmax was 45 to 65%. On the same count and under the same terms, the same measure for `Cc1cc(F)c(Nc2nc(-c3ccc4c(c3)N([C@H]3C[C@@H](N5CCCCC5)C3)C(=O)C43CCN(CCOCCOCCOCCOCCOCCOCCOCCNc4cccc5c4C(=O)N(C4CCC(=O)NC4=O)C5=O)CC3)cc3ncn(C(C)C)c23)cc1C(=O)NC(C)C` (stereo partly drawn) [Example 43, 5-[(6-{1′-[23-({2-[2,6-dioxopiperidin-3-yl]-1,3-dioxo-2,3-dihydro-1H-isoindol-4-yl}amino)-3,6,9,12,15,18,21-heptaoxatricosan-1-yl]-2-oxo-1-[(1s,3s)-3-(piperidin-1-yl)cyclobutyl]-1,2-dihydrospiro[indole-3,4′-piperidin]-6-yl}-3-(propan-2-yl)-3H-imidazo[4,5-c]pyridin-4-yl)amino]-4-fluoro-2-methyl-N-(propan-2-yl)benzamide]: more than 65%.

The term Dmax denotes the greatest extent of degradation seen. High values mean a fuller loss of target, low ones a partial loss of target.
